Where no end group is shown, it is not given here. The star is where a group is joined. Carboxymethyl = O=C(O)C*

Data set [1] has as its system HepG2 cells. In words: Luciferase reporter gene expression in HepG2 cells, Example 5. It is filed as cell-based. As for the experimental part:
HepG2 cells (1.5×10^5) were plated on 6×35 mm wells and grown to 40-70% confluency in MEM supplemented with 10% FBS, penicillin and streptomycin (10,000 U/ml), sodium pyruvate (100 mM), and L-glutamine (200 mM). Transfections were performed in MEM (2 ml per 35 mm well) with 2% FBS and 80 μM chloroquine. Peptide DNA condensates (10 μg of DNA in 0.2 ml HBM) were added dropwise to triplicate wells. After a 5 h incubation at 37° C., the media was replaced with MEM supplemented with 10% FBS. After 24 h, cells were washed twice with ice-cold phosphate buffered saline (calcium and magnesium free) and then treated with 0.5 ml of ice-cold lysis buffer (25 mM Tris chloride pH 7.8, 1 mM EDTA, 8 mM magnesium chloride, 1% Triton X-100, 1 mM DTT) for 10 min. The cell lysate was scraped, transferred to 1.5 ml microcentrifuge tubes, and centrifuged for 7 min at 13,000 g at 4° C. to pellet debris.
Lysis buffer (300 μl), sodium-ATP (4 μl of a 180 mM solution, pH 7, 4° C.) and cell lysate (100 μl, 4° C.) were combined in a test tube, briefly mixed and immediately placed in the luminometer. Luciferase relative light units (RLU) were recorded on a Lumat™ LB 9501 (Berthold systems, Germany) with 10 sec integration after automatic injection of 100 μl of 0.5 mM D-luciferin (prepared fresh in lysis buffer without DTT). The RLU were converted in fmol using a standard curve generated by adding a known amount of luciferase (0.01 to 100 fmols with specific activity of 2.5 nU/fmol) to 35 mm wells containing 40-70% confluent HepG2 cells. The cells were processed as described above resulting in a standard curve with an average slope of 7.8×10^6 RLU per fmol of enzyme. Protein concentrations were measured by Bradford assay using bovine serum albumin as a standard (Bradford, 1976). The amount of luciferase recovered in each sample was normalized to milligrams of protein and reported as the mean and standard deviation obtained from triplicate transfections.
LipofectAce™ (Gibco BRL, 1:2.5 w/w dimethyl diotadecylammonium bromide and dioleoyl phosphatidylethanolamine) was used to mediate gene transfection according to the manufacturer's instructions. The ratio of DNA to LepofectAce™ was optimized for HepG2 cells. An optimal DNA/LipofectAce™ ratio was achieved by dissolving 10 μg of DNA in 100 μl serum free media (SFM) followed by adding 60 μl of LipofectAce™ prepared in 140 μl of SFM. The LipfectAce™ DNA complex was then diluted with 1.7 ml of SFM and used to transfect HepG2 cells for 5 h followed by replacing the transfecting media with media supplemented with 10% FBS. The cells were incubated for a total of 24 h, harvested and analyzed for luciferase as described above.

Data set [2] in a line: QELS particle size and zeta potential of glycopeptide DNA condensates, Example 3. It is filed as physicochemical. As to conditions: 0.5 nmol of peptide or glycopeptide per μg of DNA; 50 μg/mL DNA in HBM. As for the experimental part:
Glycopeptide DNA condensates were formed at a plasmid DNA concentration of 50 μg/mL in HBM (5 mM Hepes 0.27 M mannitol pH 7.4). DNA condensates were formed by combining 750 μL of plasmid DNA (100 μg/mL) with 750 μL of triantennary-CWK18 (50 nmol/mL), Man9-CWK18, or AlkCWK18 while vortexing. The particle size of glycopeptide and peptide DNA condensates were analyzed at a DNA concentration of 50 μg/mL in HBM by quasielastic light scattering (QELS) (Cohen et al., 1990). The particle surface charge was determined at 50 μg/mL in HBM by zeta potential analysis using a Brookhaven ZetaPlus™ (Brookhaven Instruments).

The nature of data set [3]: Solubility of peptide DNA condensates: particle size as a function of DNA concentration. It is filed as physicochemical. As to conditions: when increasing DNA concentration from 50 to 500 μg/ml.

For “Cys-Trp-Lys17-Cys (CWKKKKKKKKKKKKKKKKKC) [Peptide II]”, the “chloroquine enhancement of gene expression relative to that of AlkCWK18 DNA condensates” value in data set [1] is reported as “approximately 5 fold”. The “increase in gene expression over polylysine1007 or LipofectAce” value in data set [1] (HepG2) worked out at 5 fold. Also, in data set [1] (HepG2, 80 μM chloroquine, 24 h), the “increase in luciferase gene expression relative to AlkCWK18 DNA condensates” value was found to be 60 fold.

“Alk-S-Cys-Trp-Lys18 (C(Carboxymethyl)WKKKKKKKKKKKKKKKKKK) [AlkCWK18]”: the “mean particle size of DNA condensates” value in data set [2] came out at 81 nm. In data set [3], the “particle size of DNA condensates” value fell in the range of 60 to 400 nm.

For the origin of these results see US6770740B1, “Crosslinked DNA condesate compositions and gene delivery methods” (The Regents of the University of Michigan, priority 1999, dated 2004).
